For test [1], the system named is LPS-stimulated TNFα production in THP-1 cells. In words: LPS-stimulated TNFα production inhibition test using human acute monocytic leukemia cell strain THP-1. Type of test: cell-based. Conditions: Homo sapiens, THP-1, 4 h, LPS 2.5 ng/mL, average values. An outline of the steps:
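THP-1 cells were preincubated with compound for 1 h at 37 °C, then stimulated with LPS (2.5 ng/mL final) for 4 h. Supernatant TNFα was quantified by HTRF (620/665 nm ratio) against a calibration curve. IC50 came from a 4-parameter logistic fit, with no-LPS set as 100% and no-compound as 0% suppression.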

In another test the target is human IRAK-4 (Homo sapiens (Human), UniProt Q9NWZ3). In words: Measurement of human IRAK-4 inhibitory activity (TR-FRET, peptide substrate phosphorylation, 10 μM ATP). Type of test: biochemical. The settings on record: 1 nM IRAK-4, 10 μM ATP, 23° C., 30 minutes; average values. The gist of the method:
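With 1 nM IRAK-4, 0.5 μM biotinylated peptide and 10 μM ATP, compound incubated 30 min at 23 °C in 50 mM HEPES pH 7.2 with Mg2+/Mn2+. Stopped with EDTA plus europium-cryptate anti-phosphopeptide antibody and streptavidin-XL665, 60 min at 23 °C. Activity taken as the 665/620 nm TR-FRET ratio.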
In general terms: TR-FRET usually uses a lanthanide donor and a delayed reading to cut background.

Each structure is given as a SMILES string. pIC50: −log10 of the molar value.

human IRAK-4, sequence (Q9NWZ3 whole entry): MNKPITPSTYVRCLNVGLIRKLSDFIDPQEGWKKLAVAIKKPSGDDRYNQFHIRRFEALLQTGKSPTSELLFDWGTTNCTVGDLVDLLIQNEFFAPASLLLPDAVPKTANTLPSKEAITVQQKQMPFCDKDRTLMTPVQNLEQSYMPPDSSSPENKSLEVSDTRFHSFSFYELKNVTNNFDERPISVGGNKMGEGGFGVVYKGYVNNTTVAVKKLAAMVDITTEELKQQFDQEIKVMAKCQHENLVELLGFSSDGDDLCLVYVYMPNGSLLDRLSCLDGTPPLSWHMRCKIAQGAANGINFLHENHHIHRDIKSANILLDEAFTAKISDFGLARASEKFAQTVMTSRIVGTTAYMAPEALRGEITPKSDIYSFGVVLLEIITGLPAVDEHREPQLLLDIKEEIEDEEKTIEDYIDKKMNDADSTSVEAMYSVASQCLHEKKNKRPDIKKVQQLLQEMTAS

A word on the pIC50: it is −log10 of the IC50, conventionally taken in molar units. For `Cc1cc(C(=O)N2CCN([C@H]3C[C@@H](C(=O)Nc4cc5cc(-c6cnc(CO[C@H]7CCC[C@@H]7O)nc6)ccn5n4)C3)[C@@H](C)C2)ccn1` [e-02-01, (1R,3s)-N-(5-(2-((((1S,2S)-2-Hydroxycyclopentyl)oxy)methyl)pyrimidin-5-yl)pyrazolo[1,5-a]pyridin-2-yl)-3-((S)-2-methyl-4-(2-methylisonicotinoyl)piperazin-1-yl)cyclobutane-1-carboxamide], the results for the pIC50 (in test [1]; against human IRAK-4) were 7.11 and 8.84, respectively.
Turning to `CC(C)(C)O[C@H]1C[C@@H](C(=O)Nc2nc3ccc(-c4cnc(CO[C@H]5CCC[C@@H]5O)nc4)cc3s2)C1` [d-02-01, (1s,3s)-3-(tert-Butoxy)-N-(6-(2-((((1S,2S)-2-hydroxycyclopentyl)oxy)methyl)pyrimidin-5-yl)benzo[d]thiazol-2-yl)cyclobutane-1-carboxamide], the figures for the pIC50 (in test [1]; against human IRAK-4) were 7.11 and 8.74, respectively.
Taken in the same sequence, the figures for `O=C(Nc1nc2ccc(-c3cnc(CO[C@H]4CCC[C@@H]4O)nc3)cc2s1)C1CC(NC2(C(F)(F)F)COC2)C1` (stereo partly shown) [b-02-78] were 6.95 and 8.64.
The corresponding values for `CN(C)CC1CC(C(=O)Nc2nc3ccc(-c4cnc(CO[C@H]5CCC[C@@H]5O)nc4)cc3s2)C1` (stereo partly drawn) [d-05-01, 3-((Dimethylamino)methyl)-N-(6-(2-((((1S,2S)-2-hydroxycyclopentyl)oxy)methyl)pyrimidin-5-yl)benzo[d]thiazol-2-yl)cyclobutane-1-carboxamide] are 6.74 and 8.82.
The corresponding values for `O=C(Nc1nc2ccc(-c3cnc(CO[C@H]4CCC[C@@H]4O)nc3)cc2s1)[C@@H]1C[C@H]1F` [a-01-03] are 6.85 and 8.57.
Regarding `O=C(Nc1nc2ccc(-c3cnc(CO[C@H]4CCC[C@@H]4O)nc3)cc2s1)C1CC(N2CCCCC2)C1` (stereo partly shown) [b-02-83], the values for the pIC50 (in test [1]; on human IRAK-4) were 6.83 and 8.71, respectively.
In the case of `Cc1cccc(C(=O)N2CCN([C@H]3C[C@@H](C(=O)Nc4nc5ccc(-c6cnc(CO[C@H]7CCC[C@@H]7O)nc6)cc5s4)C3)[C@@H](C)C2)n1` [b-04-21], the figures for the pIC50 (in test [1]; on human IRAK-4) were 7.48 and 8.94, respectively.
Taken in the same sequence, the figures for `C[C@H]1CN(C(=O)c2cc(F)ccn2)CCN1[C@H]1C[C@@H](C(=O)Nc2nc3ccc(-c4cnc(CO[C@H]5CCC[C@@H]5O)nc4)cc3s2)C1` [b-04-46] were 7.66 and 9.24.
On to `C[C@H]1CN(C(=O)C2CC2)CCN1[C@H]1C[C@@H](C(=O)Nc2cc3cc(-c4cnc(CO[C@H]5CCC[C@@H]5O)nc4)ccn3n2)C1` [e-02-10], for which the pIC50 in test [1] was 6.88; against human IRAK-4, 8.96.
As for `C[C@@H]1CN(C2CC(C(=O)Nc3nc4ccc(-c5cnc(CO[C@H]6CCC[C@@H]6O)nc5)cc4s3)C2)C[C@H](C)O1` (stereo partly shown) [b-02-19], the negative-log IC50 (pIC50) in test [1] was 6.84; at human IRAK-4 it was 8.60.
With `O=C(Nc1nc2ccc(-c3cnc(CO[C@H]4CCC[C@@H]4O)nc3)cc2s1)C1CC(N2CCN(CC(F)(F)F)CC2)C1` (stereo partly shown) [b-02-23], the pIC50 in test [1] is 6.78; against human IRAK-4, 8.60.
Taken in the same sequence, the figures for `C[C@@H]1COCCN1C1CC(C(=O)Nc2nc3ccc(-c4cnc(CO[C@H]5CCC[C@@H]5O)nc4)cc3s2)C1` (stereo partly shown) [b-02-05] were 6.88 and 8.67.
The corresponding values for `C[C@H]1CN(C(=O)C2CCC2)CCN1[C@H]1C[C@@H](C(=O)Nc2cc3cc(-c4cnc(CO[C@H]5CCC[C@@H]5O)nc4)ccn3n2)C1` [e-02-06] are 6.95 and 8.89.
Regarding `C[C@H]1CN(C(=O)c2ccccc2)CCN1[C@H]1C[C@@H](C(=O)Nc2nc3ccc(-c4cnc(CO[C@H]5CCC[C@@H]5O)nc4)cc3s2)C1` [b-05-04], the results for the pIC50 (in test [1]; at human IRAK-4) were 7.62 and 8.36, respectively.
The corresponding values for `O=C(Nc1cc2cc(-c3cnc(CO[C@H]4CCC[C@@H]4O)nc3)ccn2n1)[C@@H]1C[C@H]1F` [e-01-02] are 6.65 and 8.61.
The corresponding values for `N#CC12CC(NC3CC(C(=O)Nc4nc5ccc(-c6cnc(CO[C@H]7CCC[C@@H]7O)nc6)cc5s4)C3)(C1)C2` (stereo partly shown) [b-02-42] are 6.91 and 8.71.
The corresponding values for `O=C(Nc1nc2ccc(-c3cnc(CO[C@H]4CCC[C@@H]4O)nc3)cc2s1)C1CC(NC23CC(C(F)(F)F)(C2)C3)C1` (stereo partly shown) [b-02-60] are 6.80 and 8.37.
In the case of `O=C(Nc1nc2ccc(-c3cnc(CO[C@H]4CCC[C@@H]4O)nc3)cc2s1)C1CC(NCc2ccsn2)C1` (stereo partly shown) [b-02-87], the pIC50 is 6.74 in test [1] and 9.02 against human IRAK-4.
Taken in the same sequence, the figures for `CCO[C@H]1C[C@@H](C(=O)Nc2nc3ccc(-c4cnc(CO[C@H]5CCC[C@@H]5O)nc4)cc3s2)C1` [d-04-01, (1s,3s)-3-Ethoxy-N-(6-(2-((((1S,2S)-2-hydroxycyclopentyl)oxy)methyl)pyrimidin-5-yl)benzo[d]thiazol-2-yl)cyclobutane-1-carboxamide] were 6.74 and 8.68.
`Cc1ccnc(C(=O)N2CCN([C@H]3C[C@@H](C(=O)Nc4nc5ccc(-c6cnc(CO[C@H]7CCC[C@@H]7O)nc6)cc5s4)C3)[C@@H](C)C2)c1` [b-04-47]: the values for the negative logarithm of the IC50 (pIC50) (in test [1]; against human IRAK-4) were 7.59 and 9.27, respectively.
As to `O=C(Nc1nc2ccc(-c3cnc(CO[C@H]4CCC[C@@H]4O)nc3)cc2s1)[C@H]1C[C@H]1F` [a-01-02], the pIC50 in test [1] was 6.74; against human IRAK-4 it was 8.70.
Taken in the same sequence, the figures for `CC1COCCCN1C1CC(C(=O)Nc2nc3ccc(-c4cnc(CO[C@H]5CCC[C@@H]5O)nc4)cc3s2)C1` (stereo partly shown) [b-02-36] were 6.84 and 8.74.
Taken in the same sequence, the figures for `O=C(Nc1nc2ccc(-c3cnc(CO[C@H]4CCC[C@@H]4O)nc3)cc2s1)C1CC(NC2CC2)C1` (stereo partly shown) [b-02-47] were 6.96 and 8.76.
Taken in the same sequence, the figures for `CC(C)C(=O)N1CCN([C@H]2C[C@@H](C(=O)Nc3nc4ccc(-c5cnc(CO[C@H]6CCC[C@@H]6O)nc5)cc4s3)C2)[C@@H](C)C1` [b-05-06] were 7.34 and 8.65.
In the case of `O=C(Nc1nc2ccc(-c3cnc(CO[C@H]4CCC[C@@H]4O)nc3)cc2s1)C1C[C@H]1c1cccnc1` (stereo partly shown) [a-01-05], the pIC50 in test [1] was 6.92; against human IRAK-4, 8.68.
Turning to `CC1(C)CN(C2CC(C(=O)Nc3nc4ccc(-c5cnc(CO[C@H]6CCC[C@@H]6O)nc5)cc4s3)C2)CCO1` (stereo partly shown) [b-02-18], the negative logarithm of the IC50 (pIC50) in test [1] is 6.79; against human IRAK-4, 8.53.
Taken in the same sequence, the figures for `CCCOCc1ncc(-c2ccc3nc(NC(=O)C4CC4)sc3c2)cn1` [a-02-01, N-(6-(2-(Propoxymethyl)pyrimidin-5-yl)benzo[d]thiazol-2-yl)cyclopropanecarboxamide] were 6.48 and 7.79.
On to `C[C@@H]1C[C@H]1C(=O)Nc1nc2ccc(-c3cnc(CO[C@H]4CCC[C@@H]4O)nc3)cc2s1` [d-01-01, (1R,2R)—N-(6-(2-((((1S,2S)-2-Hydroxycyclopentyl)oxy)methyl)pyrimidin-5-yl)benzo[d]thiazol-2-yl)-2-methylcyclopropane-1-carboxamide], for which the values for the pIC50 (in test [1]; against human IRAK-4) were 7.07 and 8.88, respectively.
Taken in the same sequence, the figures for `CC(C)C(=O)N1CCC2(CC1)CC(C(=O)Nc1nc3ccc(-c4cnc(CO[C@H]5CCC[C@@H]5O)nc4)cc3s1)C2` [d-03-05] were 7.03 and 8.60.

The values above are taken from US20240025893A1, “PYRIMIDINE-AND NITROGEN-CONTAINING BICYCLIC COMPOUND” (Asahi Kasei Pharma Corporation, priority 2020, published 2024).
